Reference: PMC5564600 (Oncotarget, 2017)

Key:
Assay in all cases: biochemical
Type in all cases: binding
panel of 442 kinases [1] = target: T1, panel of 442 kinases (Homo sapiens, UniProt O14936); details: CASK; for remaining activity at 1 µM: read-out: % of control at 1 µM
T1 construct: purchased Ambit Biosciences (scanMAXX KINOMEscan)
T1 sequence (O14936 1-926): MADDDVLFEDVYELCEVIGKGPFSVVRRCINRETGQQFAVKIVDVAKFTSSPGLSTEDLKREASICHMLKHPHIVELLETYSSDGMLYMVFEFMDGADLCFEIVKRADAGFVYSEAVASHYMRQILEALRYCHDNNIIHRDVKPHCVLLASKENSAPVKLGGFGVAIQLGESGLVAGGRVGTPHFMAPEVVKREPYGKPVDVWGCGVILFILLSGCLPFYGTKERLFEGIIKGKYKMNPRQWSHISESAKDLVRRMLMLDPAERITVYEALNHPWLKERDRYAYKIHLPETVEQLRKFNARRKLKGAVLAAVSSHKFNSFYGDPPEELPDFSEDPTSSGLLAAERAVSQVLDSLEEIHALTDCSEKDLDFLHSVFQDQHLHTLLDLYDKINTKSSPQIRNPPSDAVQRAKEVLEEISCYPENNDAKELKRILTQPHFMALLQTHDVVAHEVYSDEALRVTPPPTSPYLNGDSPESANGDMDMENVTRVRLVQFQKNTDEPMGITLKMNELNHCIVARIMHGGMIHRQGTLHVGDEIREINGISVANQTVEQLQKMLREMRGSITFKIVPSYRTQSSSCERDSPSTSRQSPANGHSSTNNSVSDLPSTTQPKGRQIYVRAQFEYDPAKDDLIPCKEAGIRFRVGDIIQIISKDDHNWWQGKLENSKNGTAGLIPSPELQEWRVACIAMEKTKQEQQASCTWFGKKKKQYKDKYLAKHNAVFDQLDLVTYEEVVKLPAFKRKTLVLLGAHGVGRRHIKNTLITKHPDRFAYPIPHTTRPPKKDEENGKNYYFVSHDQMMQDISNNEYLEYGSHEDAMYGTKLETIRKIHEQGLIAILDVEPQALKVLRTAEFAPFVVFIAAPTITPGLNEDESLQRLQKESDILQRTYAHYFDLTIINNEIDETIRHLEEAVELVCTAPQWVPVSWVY

panel of 442 kinases [2] = target: T2, panel of 442 kinases (Homo sapiens, UniProt O43293); details: DAPK3; for remaining activity at 1 µM: read-out: % of control at 1 µM
T2 construct: purchased Ambit Biosciences (scanMAXX KINOMEscan)

panel of 442 kinases [3] = target: T3, panel of 442 kinases (Homo sapiens, UniProt P22607); details: FGFR3; for remaining activity at 1 µM: read-out: % of control at 1 µM
T3 construct: purchased Ambit Biosciences (scanMAXX KINOMEscan)

panel of 442 kinases [4] = target: T4, panel of 442 kinases (Homo sapiens, UniProt P36894); details: BMPR1A; for remaining activity at 1 µM: read-out: % of control at 1 µM
T4 construct: purchased Ambit Biosciences (scanMAXX KINOMEscan)

panel of 442 kinases [5] = target: T5, panel of 442 kinases (Homo sapiens, UniProt P78356); details: kinase PIP5K2B; for remaining activity at 1 µM: read-out: % of control at 1 µM
T5 construct: purchased Ambit Biosciences (scanMAXX KINOMEscan)
T5 sequence (P78356 1-416): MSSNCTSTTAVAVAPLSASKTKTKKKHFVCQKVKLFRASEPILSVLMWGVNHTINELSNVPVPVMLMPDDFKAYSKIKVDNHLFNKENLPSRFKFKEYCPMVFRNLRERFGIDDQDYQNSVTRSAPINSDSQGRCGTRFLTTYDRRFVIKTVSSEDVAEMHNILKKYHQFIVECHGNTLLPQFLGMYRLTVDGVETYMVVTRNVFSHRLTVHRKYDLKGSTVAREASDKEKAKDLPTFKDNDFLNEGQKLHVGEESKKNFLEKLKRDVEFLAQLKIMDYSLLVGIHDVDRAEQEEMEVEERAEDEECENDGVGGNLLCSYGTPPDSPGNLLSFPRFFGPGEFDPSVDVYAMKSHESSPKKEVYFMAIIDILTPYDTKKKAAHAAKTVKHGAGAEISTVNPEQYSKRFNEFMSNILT

panel of 442 kinases [6] = target: T6, panel of 442 kinases (Homo sapiens, UniProt Q04771); details: ACVR1; for remaining activity at 1 µM: read-out: % of control at 1 µM
T6 construct: purchased Ambit Biosciences (scanMAXX KINOMEscan)
T6 sequence (Q04771 21-509): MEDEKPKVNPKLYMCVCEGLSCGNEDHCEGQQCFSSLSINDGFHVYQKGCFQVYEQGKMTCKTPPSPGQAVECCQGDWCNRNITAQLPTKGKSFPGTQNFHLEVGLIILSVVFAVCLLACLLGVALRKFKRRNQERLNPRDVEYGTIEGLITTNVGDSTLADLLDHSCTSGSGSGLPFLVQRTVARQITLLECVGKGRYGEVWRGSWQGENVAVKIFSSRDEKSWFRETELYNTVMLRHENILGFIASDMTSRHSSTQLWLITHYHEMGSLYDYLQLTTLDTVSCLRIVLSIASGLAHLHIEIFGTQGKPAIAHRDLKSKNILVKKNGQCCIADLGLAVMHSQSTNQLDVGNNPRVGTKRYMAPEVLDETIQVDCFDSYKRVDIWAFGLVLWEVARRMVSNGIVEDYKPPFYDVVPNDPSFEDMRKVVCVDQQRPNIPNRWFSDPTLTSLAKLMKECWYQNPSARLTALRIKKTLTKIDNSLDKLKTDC

panel of 442 kinases [7] = target: T7, panel of 442 kinases (Homo sapiens, UniProt Q5VT25); details: kinase MRCKA; for remaining activity at 1 µM: read-out: % of control at 1 µM
T7 construct: purchased Ambit Biosciences (scanMAXX KINOMEscan)

panel of 442 kinases [8] = target: T8, panel of 442 kinases (Homo sapiens, UniProt Q96Q40); details: kinase PFTAIRE2; for remaining activity at 1 µM: read-out: % of control at 1 µM
T8 construct: purchased Ambit Biosciences (scanMAXX KINOMEscan)

panel of 442 kinases [9] = target: T9, panel of 442 kinases (Homo sapiens, UniProt Q9NQU5); details: kinase PAK6; for remaining activity at 1 µM: read-out: % of control at 1 µM
T9 construct: purchased Ambit Biosciences (scanMAXX KINOMEscan)

[10] = 10 µM, read-out: % of control at 10 µM

T8 sequence (Q96Q40 whole entry): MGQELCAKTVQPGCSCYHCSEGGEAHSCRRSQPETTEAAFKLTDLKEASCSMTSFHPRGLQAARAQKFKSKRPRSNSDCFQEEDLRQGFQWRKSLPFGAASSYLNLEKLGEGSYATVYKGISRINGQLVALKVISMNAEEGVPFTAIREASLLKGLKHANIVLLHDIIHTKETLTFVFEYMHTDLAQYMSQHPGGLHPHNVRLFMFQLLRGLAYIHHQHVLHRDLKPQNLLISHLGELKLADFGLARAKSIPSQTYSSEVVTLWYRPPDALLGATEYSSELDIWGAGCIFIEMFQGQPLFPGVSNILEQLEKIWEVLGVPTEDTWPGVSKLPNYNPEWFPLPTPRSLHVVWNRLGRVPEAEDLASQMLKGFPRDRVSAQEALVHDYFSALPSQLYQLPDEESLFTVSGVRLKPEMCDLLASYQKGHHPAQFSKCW
T9 sequence (Q9NQU5 whole entry): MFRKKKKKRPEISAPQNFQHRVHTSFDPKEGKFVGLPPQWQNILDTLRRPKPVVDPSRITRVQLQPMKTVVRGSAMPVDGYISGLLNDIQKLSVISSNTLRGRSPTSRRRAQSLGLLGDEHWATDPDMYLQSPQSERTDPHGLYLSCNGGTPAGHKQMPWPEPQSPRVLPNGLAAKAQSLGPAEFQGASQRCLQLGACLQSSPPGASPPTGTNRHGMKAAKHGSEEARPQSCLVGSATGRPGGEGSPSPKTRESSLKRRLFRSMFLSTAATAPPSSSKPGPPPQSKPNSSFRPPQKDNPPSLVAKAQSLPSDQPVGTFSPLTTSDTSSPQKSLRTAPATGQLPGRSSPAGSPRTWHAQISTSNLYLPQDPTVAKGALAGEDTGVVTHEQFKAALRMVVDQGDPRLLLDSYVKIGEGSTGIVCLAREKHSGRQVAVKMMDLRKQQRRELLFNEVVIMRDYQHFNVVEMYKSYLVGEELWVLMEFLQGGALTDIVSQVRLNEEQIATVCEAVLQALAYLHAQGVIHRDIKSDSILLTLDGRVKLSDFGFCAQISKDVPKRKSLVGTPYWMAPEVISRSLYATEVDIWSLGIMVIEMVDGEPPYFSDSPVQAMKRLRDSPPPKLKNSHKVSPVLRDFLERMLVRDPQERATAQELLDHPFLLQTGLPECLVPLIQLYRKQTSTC
T7 sequence (Q5VT25 whole entry): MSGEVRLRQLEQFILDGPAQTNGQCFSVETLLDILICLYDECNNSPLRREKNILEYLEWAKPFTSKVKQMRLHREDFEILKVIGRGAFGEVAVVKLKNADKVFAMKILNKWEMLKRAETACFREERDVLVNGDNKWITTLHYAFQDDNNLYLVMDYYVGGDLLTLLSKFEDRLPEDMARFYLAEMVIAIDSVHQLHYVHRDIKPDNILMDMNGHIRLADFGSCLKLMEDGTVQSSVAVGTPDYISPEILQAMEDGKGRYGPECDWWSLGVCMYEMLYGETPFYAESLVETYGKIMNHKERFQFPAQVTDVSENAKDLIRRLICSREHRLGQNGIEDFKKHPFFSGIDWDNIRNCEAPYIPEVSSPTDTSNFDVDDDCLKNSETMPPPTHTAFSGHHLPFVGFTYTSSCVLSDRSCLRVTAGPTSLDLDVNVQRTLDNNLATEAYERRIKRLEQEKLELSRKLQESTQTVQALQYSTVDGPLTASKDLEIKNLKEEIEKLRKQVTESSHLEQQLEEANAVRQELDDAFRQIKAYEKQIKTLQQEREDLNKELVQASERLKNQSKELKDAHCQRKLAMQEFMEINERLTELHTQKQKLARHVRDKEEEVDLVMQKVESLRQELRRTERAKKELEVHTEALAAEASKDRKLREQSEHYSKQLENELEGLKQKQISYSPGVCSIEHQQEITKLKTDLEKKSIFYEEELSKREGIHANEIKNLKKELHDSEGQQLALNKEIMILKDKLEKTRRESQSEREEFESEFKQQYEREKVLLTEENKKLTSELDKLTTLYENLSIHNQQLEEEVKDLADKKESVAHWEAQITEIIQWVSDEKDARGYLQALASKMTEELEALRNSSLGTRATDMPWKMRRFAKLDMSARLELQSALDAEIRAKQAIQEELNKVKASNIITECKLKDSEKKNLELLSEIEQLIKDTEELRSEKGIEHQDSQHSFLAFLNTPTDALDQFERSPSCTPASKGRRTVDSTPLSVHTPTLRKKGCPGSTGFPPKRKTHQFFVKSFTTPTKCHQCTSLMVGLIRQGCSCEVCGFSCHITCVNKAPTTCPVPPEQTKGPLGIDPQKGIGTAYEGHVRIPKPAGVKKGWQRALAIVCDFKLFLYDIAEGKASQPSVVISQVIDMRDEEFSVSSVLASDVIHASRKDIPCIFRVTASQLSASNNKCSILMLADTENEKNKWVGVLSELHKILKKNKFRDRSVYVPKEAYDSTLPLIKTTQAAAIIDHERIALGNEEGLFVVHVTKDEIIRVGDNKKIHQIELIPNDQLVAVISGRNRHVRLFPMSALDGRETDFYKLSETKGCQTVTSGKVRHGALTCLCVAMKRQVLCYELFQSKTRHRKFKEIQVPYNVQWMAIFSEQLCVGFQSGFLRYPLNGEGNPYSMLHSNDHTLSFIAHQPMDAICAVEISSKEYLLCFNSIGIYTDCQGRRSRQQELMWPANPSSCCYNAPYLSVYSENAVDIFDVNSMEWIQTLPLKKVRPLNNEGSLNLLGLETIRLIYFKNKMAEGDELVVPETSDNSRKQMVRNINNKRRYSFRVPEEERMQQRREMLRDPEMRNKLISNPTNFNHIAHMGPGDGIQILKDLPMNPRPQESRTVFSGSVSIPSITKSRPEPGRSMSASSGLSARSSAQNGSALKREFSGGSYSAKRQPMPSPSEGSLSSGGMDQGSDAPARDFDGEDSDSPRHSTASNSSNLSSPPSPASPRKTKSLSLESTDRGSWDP
T4 sequence (P36894 24-532): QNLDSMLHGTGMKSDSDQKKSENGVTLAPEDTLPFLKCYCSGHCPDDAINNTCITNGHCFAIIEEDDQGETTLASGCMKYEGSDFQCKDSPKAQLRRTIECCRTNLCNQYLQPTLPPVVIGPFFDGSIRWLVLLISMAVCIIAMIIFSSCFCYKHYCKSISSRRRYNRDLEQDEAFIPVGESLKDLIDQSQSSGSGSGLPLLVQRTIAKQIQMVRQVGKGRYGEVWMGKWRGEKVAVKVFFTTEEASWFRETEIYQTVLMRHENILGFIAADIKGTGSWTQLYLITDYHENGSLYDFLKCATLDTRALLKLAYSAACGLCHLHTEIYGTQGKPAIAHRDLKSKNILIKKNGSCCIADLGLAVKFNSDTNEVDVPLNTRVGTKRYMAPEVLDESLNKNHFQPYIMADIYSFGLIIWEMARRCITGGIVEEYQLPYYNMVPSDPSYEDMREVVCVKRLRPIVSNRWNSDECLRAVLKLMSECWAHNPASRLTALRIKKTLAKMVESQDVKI
T3 sequence (P22607 23-806): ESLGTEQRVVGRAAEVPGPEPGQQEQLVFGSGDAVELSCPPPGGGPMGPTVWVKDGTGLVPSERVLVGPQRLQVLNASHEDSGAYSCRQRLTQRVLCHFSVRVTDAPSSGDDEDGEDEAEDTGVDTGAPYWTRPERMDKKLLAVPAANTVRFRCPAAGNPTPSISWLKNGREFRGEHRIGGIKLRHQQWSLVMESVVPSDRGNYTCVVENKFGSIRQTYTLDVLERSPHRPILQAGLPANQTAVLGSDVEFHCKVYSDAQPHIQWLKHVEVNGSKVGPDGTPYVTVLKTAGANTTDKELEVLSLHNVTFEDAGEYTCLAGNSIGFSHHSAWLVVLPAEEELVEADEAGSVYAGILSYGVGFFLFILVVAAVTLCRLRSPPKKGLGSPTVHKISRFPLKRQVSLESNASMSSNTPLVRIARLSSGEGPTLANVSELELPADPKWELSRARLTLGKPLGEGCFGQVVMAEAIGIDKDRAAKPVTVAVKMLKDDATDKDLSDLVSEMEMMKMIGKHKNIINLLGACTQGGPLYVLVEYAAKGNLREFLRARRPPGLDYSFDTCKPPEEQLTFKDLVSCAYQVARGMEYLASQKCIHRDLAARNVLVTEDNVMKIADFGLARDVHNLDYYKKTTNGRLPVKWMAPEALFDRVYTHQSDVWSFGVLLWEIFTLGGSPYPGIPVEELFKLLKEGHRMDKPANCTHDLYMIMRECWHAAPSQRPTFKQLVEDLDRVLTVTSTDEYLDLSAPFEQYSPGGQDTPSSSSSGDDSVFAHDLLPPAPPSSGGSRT
T2 sequence (O43293 whole entry): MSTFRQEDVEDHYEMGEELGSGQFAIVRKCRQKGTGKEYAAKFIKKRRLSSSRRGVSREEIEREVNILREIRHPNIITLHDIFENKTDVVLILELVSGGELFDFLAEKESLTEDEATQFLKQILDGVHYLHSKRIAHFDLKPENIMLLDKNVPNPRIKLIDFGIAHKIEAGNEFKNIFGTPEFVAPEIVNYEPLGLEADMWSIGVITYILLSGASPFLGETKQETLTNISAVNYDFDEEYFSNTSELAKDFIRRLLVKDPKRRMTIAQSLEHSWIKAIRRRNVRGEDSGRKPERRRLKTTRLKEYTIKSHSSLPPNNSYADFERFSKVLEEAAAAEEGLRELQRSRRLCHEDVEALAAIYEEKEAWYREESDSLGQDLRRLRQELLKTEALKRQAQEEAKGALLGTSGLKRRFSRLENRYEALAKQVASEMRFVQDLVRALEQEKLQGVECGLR

| Compound | remaining activity at 1 µM (panel of 442 kinases [1]) [%] | remaining activity at 10 µM (panel of 442 kinases [1]; [10]) [%] | remaining activity at 1 µM (panel of 442 kinases [2]) [%] | remaining activity at 10 µM (panel of 442 kinases [2]; [10]) [%] | remaining activity at 1 µM (panel of 442 kinases [3]) [%] | remaining activity at 10 µM (panel of 442 kinases [3]; [10]) [%] | remaining activity at 1 µM (panel of 442 kinases [4]) [%] | remaining activity at 10 µM (panel of 442 kinases [4]; [10]) [%] | remaining activity at 1 µM (panel of 442 kinases [5]) [%] | remaining activity at 10 µM (panel of 442 kinases [5]; [10]) [%] | remaining activity at 1 µM (panel of 442 kinases [6]) [%] | remaining activity at 10 µM (panel of 442 kinases [6]; [10]) [%] | remaining activity at 1 µM (panel of 442 kinases [7]) [%] | remaining activity at 10 µM (panel of 442 kinases [7]; [10]) [%] | remaining activity at 1 µM (panel of 442 kinases [8]) [%] | remaining activity at 10 µM (panel of 442 kinases [8]; [10]) [%] | remaining activity at 1 µM (panel of 442 kinases [9]) [%] | remaining activity at 10 µM (panel of 442 kinases [9]; [10]) [%] |
| --- | --- | --- | --- | --- | --- | --- | --- | --- | --- | --- | --- | --- | --- | --- | --- | --- | --- | --- |
| Nc1cc(C(F)(F)F)c(-c2cc(N3CCOCC3)nc(N3CCOCC3)n2)cn1 [Buparlisib] | 99 | 100 | 100 | 100 | 100 | 100 | 100 | 100 | 84 | 100 | 100 | 100 | 80 | 100 | 100 | 100 | 96 | 100 |
| COc1ncc(-c2ccc3nccc(-c4ccnnc4)c3c2)cc1NS(=O)(=O)c1ccc(F)cc1F [Omipalisib] | 75 |  | 100 |  | 87 |  | 100 |  | 100 |  | 100 |  | 97 |  | 100 |  | 100 |  |
| FC(F)c1nc2ccccc2n1-c1nc(N2CCOCC2)nc(N2CCOCC2)n1 [ZSTK474, 2-(difluoromethyl)-1-[4,6-di(4-morpholinyl)-1,3,5-triazin-2-yl]-1H-benzimidazole] | 87 |  | 100 |  | 100 |  | 58 |  | 100 |  | 76 |  | 83 |  | 83 |  | 100 |  |
| Cn1c(=O)n(-c2ccc(C(C)(C)C#N)cc2)c2c3cc(-c4cnc5ccccc5c4)ccc3ncc21 [Dactolisib, 2-methyl-2-[4-(3-methyl-2-oxo-8-quinolin-3-yl-2,3-dihydroimidazo[4,5-c]quinolin-1-yl)-phenyl] propionitrile] | 100 |  | 100 |  | 100 |  | 98 |  | 100 |  | 65 |  | 83 |  | 82 |  | 92 |  |
